# Reference: patent US8809545B2, “Aryl pyridine as aldosterone synthase inhibitors” (Novartis AG, priority 2009, dated 2014)
# Columns and labels:
# aldosterone synthase = target: T1, aldosterone synthase (Homo sapiens, UniProt P19099); assay: Aldosterone cell secretion in Ang II-stimulated NCI-H295R cells (SPA with anti-aldosterone antibody); type: cell-based; details: human adrenocortical carcinoma NCI-H295R cells, 1 μM Ang II, 24 h
# T1 construct: host or cells: NCI-H295R
# T1 sequence (P19099 25-503): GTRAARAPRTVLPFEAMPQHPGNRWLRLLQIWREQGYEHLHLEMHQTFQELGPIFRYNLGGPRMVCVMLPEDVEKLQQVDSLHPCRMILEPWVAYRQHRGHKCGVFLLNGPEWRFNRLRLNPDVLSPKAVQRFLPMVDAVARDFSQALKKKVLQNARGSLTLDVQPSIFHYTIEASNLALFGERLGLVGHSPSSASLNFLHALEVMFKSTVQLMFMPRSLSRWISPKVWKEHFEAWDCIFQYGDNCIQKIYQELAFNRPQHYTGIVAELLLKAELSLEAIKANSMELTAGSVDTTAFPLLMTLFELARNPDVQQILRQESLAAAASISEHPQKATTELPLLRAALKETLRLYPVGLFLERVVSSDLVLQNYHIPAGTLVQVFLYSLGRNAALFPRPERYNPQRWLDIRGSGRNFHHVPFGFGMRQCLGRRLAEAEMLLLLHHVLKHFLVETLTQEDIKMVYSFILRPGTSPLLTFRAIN
# Excerpt: In particular, the aldosterone synthase inhibitory activities in vitro can be determined by the following assay.
# Human adrenocortical carcinoma NCI-H295R cell line was obtained from American Type Culture Collection (Manassas, Va.). Insulin/transferrin/selenium (ITS)-A supplement (100×), DMEM/F-12, antibiotic/antimycotic (100×), and fetal bovine serum (FBS) were purchased from Invitrogen (Carlsbad, Calif.). Anti-mouse PVT scintillation proximity assay (SPA) beads and NBS 96-well plates were obtained from GE Health Sciences (Piscataway, N.J.) and Corning (Acton, Mass.), respectively. Solid black 96-well flat bottom plates were purchased from Costar (Corning, N.Y.). Aldosterone and angiotensin (Ang II) were purchased from Sigma (St. Louis, Mo.). D-[1,2,6,7-^3H(N)]aldosterone was acquired from PerkinElmer (Boston, Mass.). Nu-serum was a product of BD Biosciences (Franklin Lakes, N.J.).
# On the following day, cells are rinsed with 100 μL of phosphate-buffered saline (PBS) and incubated with 100 μL of treatment medium containing 1 μM Ang II and a compound at different concentrations in quadruplicate wells at 37° C. for 24 h. At the end of incubation, 50 μL of medium is withdrawn from each well for measurement of aldosterone production by an SPA using mouse anti-aldosterone monoclonal antibodies.
# Measurement of aldosterone activity can also be performed using a 96-well plate format. […] Anti-mouse PVT SPA beads (50 μL) are then added to each well and incubated overnight at room temperature prior to counting in a Microbeta plate counter. The amount of aldosterone in each sample is calculated by comparing with a standard curve generated using known quantities of the hormone.
# (§1) Inhibition of the release of certain steroids can be used as a measure of the respective enzyme inhibition by the added test compounds. The dose-dependent inhibition of enzymatic activity by a compound is calculated by means of an inhibition plot which is characterized by an IC50.
# The inhibition plot is calculated by fitting a 4-parameter logistic function to the raw data points using the least squares method. The equation of the 4-parameter logistic function is calculated as follows: Y=(d−a)/((1+(x/c)b))+a, where: a=minimum data level, b=gradient, I […], d=maximum data level, x=inhibitor concentration.
# [1] = target: T2, CYP11B1 (steroid 11 β-hydroxylase) (Homo sapiens, UniProt P15538); assay: Cortisol cell secretion in NCI-H295R cells (in vitro inhibitory activity for CYP11B1); type: cell-based; details: compound at 1 μM; for inhibition at 1 µM: NCI-H295R
# T2 construct: the NCI-H295R cells have CYP11B1 (steroid 11 β-hydroxylase); host or cells: NCI-H295R
# T2 sequence (P15538 25-503): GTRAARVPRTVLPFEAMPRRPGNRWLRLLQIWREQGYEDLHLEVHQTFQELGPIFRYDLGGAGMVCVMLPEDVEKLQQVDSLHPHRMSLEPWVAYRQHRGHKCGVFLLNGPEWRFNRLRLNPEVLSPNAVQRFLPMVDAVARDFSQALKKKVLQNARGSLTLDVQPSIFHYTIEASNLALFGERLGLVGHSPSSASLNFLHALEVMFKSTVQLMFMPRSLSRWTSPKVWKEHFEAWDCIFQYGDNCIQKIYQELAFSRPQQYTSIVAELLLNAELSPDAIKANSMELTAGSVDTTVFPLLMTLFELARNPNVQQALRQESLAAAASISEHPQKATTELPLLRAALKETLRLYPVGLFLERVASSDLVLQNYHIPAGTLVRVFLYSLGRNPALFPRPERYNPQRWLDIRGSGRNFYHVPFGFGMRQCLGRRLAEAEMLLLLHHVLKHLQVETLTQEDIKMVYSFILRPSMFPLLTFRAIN
# Excerpt: The in vitro inhibitory activities for CYP11B1 can be determined by the following assay.
# The cell line NCI-H295R was originally isolated from an adrenocortical carcinoma and has been characterized in the literature through the stimulable secretion of steroid hormones and the presence of the enzymes essential for steroidogenesis. Thus, the NCI-H295R cells have CYP11B1 (steroid 11 β-hydroxylase). The cells show the physiological property of zonally undifferentiated human fetal adrenocortical cells which, however, have the capacity to produce the steroid hormones which are formed in the three, phenotypically distinguishable zones in the adult adrenal cortex.
# The NCI-H295R cells (American Type Culture Collection, ATCC, Rockville, Md., USA) are grown in Dulbeoco's Modified Eagle'Ham F-12 Medium (DME/F12), which has been supplemented with Ulroser SF Serum (Soprachem, Cergy-Saint-Christophe, France), insulin, transferrin, selenite (I-T-S, Becton Dickinson Biosiences, Franklin lakes, N.J., USA) and antibiotics in 75 cm^2 cell culture vessels at 37° C. and in a 95% air-5% carbon dioxide atmosphere. The cells are subsequently transferred for colony formation into a 24-well incubation vessel. They are cultivated there in DME/F12 medium, which is now supplemented with 0.1% bovine serum instead of Ultroser SF for 24 hours. The experiment is initiated by cultivating the cells in DME/F12 medium which is supplemented with 0.1% bovine serum albumin and test compound, in the presence or absence of cell stimulants, for 72 hours. The test substance is added in a concentration range from 0.2 nanomolar to […]. Cell stimulants which can be used are angiotensin II ([…] or 100 nanomolar), potassium ions (16 millimolar), forskolin (10 micromolar) or a combination of two stimulants.
# The excretion of aldosterone, cortisol, corticosterone and estradiol/estrone into the culture medium can be detected and quantified by commercially available, specific monoclonal antibodies in radioimmunoassays in accordance with the manufacturer's instructions.
# as §1
# The inhibition activity of CYP11B1 production can also be expressed in percentage inhibition (% inhibition) at a given concentration (e.g. % inhibition at 1 μM), which is the cortisol level when cell is treated with the given concentration of a compound of the invention (e.g. concentration of 1 μM) versus the cortisol excretion when cell is free of the compound of the invention. % inhibition cortisol production=[(Y′−X′)/Y′]×100 wherein X′ is the level of cortisol when the cell is treated with a compound of Formula I; and Y′ is the level of cortisol when the cell is free of compound of Formula I.
IC50 (aldosterone synthase) [nM],inhibition at 1 µM [1] [%],Cortisol cell secretion (% inhibition @ 1 μM) [1] [%],Structure (SMILES),IC50 (aldosterone synthase; Enantiomer 1) [nM],IC50 (aldosterone synthase; Enantiomer 2) [nM]
45,34,,N#Cc1ccc(-c2cncc(NS(=O)(=O)Cc3ccccc3Cl)c2)cc1Cl [N-(5-(3-chloro-4-cyanophenyl)pyridin-3-yl)-1-(2-chlorophenyl)methanesulfonamide],,
3,75,,"CCS(=O)(=O)NC1CC1c1cncc(-c2cccc(Cl)c2Cl)c1 (stereo not shown) [N-(2-(5-(2,3-dichlorophenyl)pyridin-3-yl)cyclopropyl)ethane-sulfonamide]",,
,38,,"CCS(=O)(=O)NC(C)c1cncc(-c2ccc(C#N)c(OC)c2)c1 (single isomer, unassigned) [N-(1-(5-(4-cyano-3-methoxyphenyl)pyridin-3-yl)ethyl)ethanesulfonamide]",64,140
,,44,"CCS(=O)(=O)NC(c1cncc(-c2ccc(C#N)c(OC)c2)c1)C1CC1 (single isomer, unassigned) [N-((5-(4-cyano-3-methoxyphenyl)pyridin-3-yl)(cyclopropyl)met] [N-(5-(4-cyano-3-methoxyphenyl)pyridin-3-yl)(cyclopropyl)methyl)ethanesulfonamide]",,
22,21,,CCS(=O)(=O)NC(c1cncc(-c2ccc(F)c(Cl)c2)c1)C1CC1 (stereo not shown) [N-((5-(3-chloro-4-fluorophenyl)pyridin-3-yl)(cyclopropyl)methyl)-ethanesulfonamide],,
42,31,,CCS(=O)(=O)NC(c1cncc(-c2ccc(Cl)cc2)c1)C1CC1 (stereo not shown) [N-((5-(4-chlorophenyl)pyridin-3-yl)(cyclopropyl)methyl)-ethanesulfonamide],,
110,20,,CCS(=O)(=O)NC(c1cncc(-c2ccc(OC(F)(F)F)cc2)c1)C1CC1 (stereo not shown) [N-(cyclopropyl(5-(4-(trifluoromethoxy)phenyl)pyridin-3-yl)methyl)ethanesulfonamide],,
5,39,,"CCS(=O)(=O)NC(c1cncc(-c2cccc(Cl)c2Cl)c1)C1CC1 (stereo not shown) [N-(cyclopropyl(5-(2,3-dichlorophenyl)pyridin-3-yl)methyl)ethanesulfonamide]",,
6,78,,CCc1ccc(S(=O)(=O)Nc2cncc(-c3ccc(C#N)c(Cl)c3)c2)cc1 [N-[5-(3-Chloro-4-cyano-phenyl)-pyridin-3-yl]-4-ethyl-benzene-sulfonamide],,
98,35,,CCS(=O)(=O)N(CC(C)C)C(c1cncc(-c2ccc(C#N)c(Cl)c2)c1)C1CC1 (stereo not shown) [Ethanesulfonic acid {[5-(3-chloro-4-cyano-phenyl)-pyridin-3-yl]-cyclopropyl-methyl}-isobutyl-amide],,
20,51,,CCS(=O)(=O)N(CCO)C(c1cncc(-c2ccc(C#N)c(Cl)c2)c1)C1CC1 (stereo not shown) [Ethanesulfonic acid {[5-(3-chloro-4-cyano-phenyl)-pyridin-3-yl]-cyclopropyl-methyl}-(2-hydroxy-ethyl)-amide],,
9,74.5,,COc1ccc(S(=O)(=O)Nc2cncc(-c3ccc(C#N)c(Cl)c3)c2)cc1 [N-[5-(3-Chloro-4-cyano-phenyl)-pyridin-3-yl]-4-methoxy-benzene-sulfonamide],,
,,27,"CCS(=O)(=O)NC(C)c1cncc(-c2ccc(C#N)c(OC)c2)c1 (single isomer, unassigned) [N-(1-(5-(4-cyano-3-methoxyphenyl)pyridin-3-yl)ethyl)ethanesu] [N-(1-(5-(4-cyano-3-methoxyphenyl)pyridin-3-yl)ethyl)ethanesulfonamide]",,
167,39,,CCS(=O)(=O)NC(c1cncc(-c2ccc(C#N)cc2F)c1)C1CC1 (stereo not shown) [N-(5-(4-cyano-2-fluorophenyl)pyridin-3-yl)(cyclopropyl)methyl)ethanesulfonamide],,

Structure (SMILES),IC50 (aldosterone synthase) [nM],inhibition at 1 µM [1] [%],Cortisol cell secretion (% inhibition @ 1 μM) [1] [%],IC50 (aldosterone synthase; Enantiomer 1) [nM],IC50 (aldosterone synthase; Enantiomer 2) [nM]
CCS(=O)(=O)NC(C)(C)c1cncc(-c2ccc(C#N)c(Cl)c2)c1 [N-(2-(5-(3-chloro-4-cyanophenyl)pyridin-3-yl)propan-2-yl)ethanesulfonamide],99,66,,,
"CCS(=O)(=O)NC(C)c1cncc(-c2ccc(C#N)c(Cl)c2)c1 (single isomer, unassigned) [N-(1-(5-(3-chloro-4-cyanophenyl)pyridin-3-yl)ethyl)ethanesulfonamide]",,53,,49,74
CCS(=O)(=O)N[C@@H](c1cncc(-c2ccc(C#N)c(Cl)c2)c1)C1CC1 [(R)-N-((5-(3-chloro-4-cyanophenyl)pyridin-3-yl)(cyclopropyl)methyl)ethanesulfonamide],56,29,,,
"CCCC(NS(=O)(=O)CC)c1cncc(-c2ccc(C#N)c(Cl)c2)c1 (single isomer, unassigned) [N-(1-(5-(3-chloro-4-cyanophenyl)pyridin-3-yl)butyl)ethanesulfonamide]",89,26,,,
"CCS(=O)(=O)NC(C)c1cncc(-c2ccc(C#N)c(Cl)c2)c1 (single isomer, unassigned) [N-(1-(5-(3-chloro-4-cyanophenyl)pyridin-3-yl)ethyl)ethanesul] [N-(1-(5-(3-chloro-4-cyanophenyl)pyridin-3-yl)ethyl)ethanesulfonamide]",,,50,,
